# In patent publication US20090191173A1, “Induction Of Neurogenesis And Stem Cell Therapy In Combination With Copolymer 1” (priority 2004, published 2009):
# Tested on: neural progenitor cells (NPCs)
# Experiment: Neurogenesis from NPCs co-cultured with microglia pre-activated by aggregated Aβ and cytokines
# Format: cell-based, mouse
# Settings: 10 days; Aβ 5 μM 48 h, cytokines 10 ng/ml
# Description: (xx) Reagents. Recombinant mouse IFN-γ and IL-4 (both containing endotoxin at a concentration below 0.1 ng/μg cytokine) were obtained from R&D Systems (Minneapolis, Minn.). β-amyloid peptides [amyloid protein fragment 1-40 and 1-42 (Aβ1-40/1-42)] were purchased from Sigma-Aldrich, St. Louis, Mo. The Aβ peptides were dissolved in endotoxin-free water, and Aβ aggregates were formed by incubation of Aβ, as described (Ishii et al., 2000). (xxv) Neural progenitor cell culture. Coronal sections (2 mm thick) of tissue containing the subventricular zone of the lateral ventricle were obtained from the brains of adult C57B1/6J mice. […] After centrifugation at 110×g for 15 min at room temperature, the tissue was mechanically dissociated by pipette trituration. Cells obtained from single-cell suspensions were plated (3500 cells/cm^2) in 75-cm^2 Falcon tissue-culture flasks (BD Biosciences, San Diego, Calif.), in NPC-culturing medium [Dulbecco's modified Eagles's medium (DMEM)/F12 medium (Gibco/Invitrogen, Carlsbad, Calif.) containing 2 mM L-glutamine, 0.6% glucose, 9.6 μg/ml putrescine, 6.3 ng/ml progesterone, 5.2 ng/ml sodium selenite, 0.02 mg/ml insulin, 0.1 mg/ml transferrin, 2 μg/ml heparin (all from Sigma-Aldrich, Rehovot, Israel), fibroblast growth factor-2 (human recombinant, 20 ng/ml), and epidermal growth factor (human recombinant, 20 ng/ml; both from Peprotech, Rocky Hill, N.J.)]. Spheres were passaged every 4-6 days and replated as single cells. Green fluorescent protein (GFP)-expressing NPCs were obtained as previously described (Pluchino et al., 2003). (xxvi) Primary microglial culture. Brains from neonatal (P0-P1) C57B1/6J mice were stripped of their meninges and minced with scissors under a dissecting microscope (Zeiss, Stemi DV4, Germany) in Leibovitz-15 medium (Biological Industries, Kibbutz Beit Ha-Emek, Israel). […] The cell suspension was washed in culture medium for glial cells [DMEM supplemented with 10% fetal calf serum (FCS; Sigma-Aldrich, Rehovot), L-glutamine (1 mM), sodium pyruvate (1 mM), penicillin (100 U/ml), and streptomycin ([…])] and cultured at 37° C./5% CO2 in 75-cm^2 Falcon tissue-culture flasks (BD Biosciences) coated with poly-D-lysine (PDL) (10 mg/ml; Sigma-Aldrich, Rehovot) in borate buffer (2.37 g borax and 1.55 g boric acid dissolved in 500 ml sterile water, pH 8.4) for 1 h, then rinsed thoroughly with sterile, glass-distilled water. Half of the medium was changed after 6 h in culture and every 2nd day thereafter, starting on day 2, for a total culture time of 10-14 days. […]
substance,measurement,value
IFN-γ: recombinant interferon-γ,neurogenesis (GFP+/βIIIT+ cells) from NPCs co-cultured with treated microglia,increase in numbers of GFP^+/βIIIT^+ cells was dramatic
